Results taken from US6776984B1, “Induced regeneration and repair of damaged neurons and nerve axon myelin” (priority 1999, dated 2004).

System: B6SJL-TgN(SOD1-G93A)1 Gur strain mice
Assay: Transgenic mouse model of familial amyotrophic lateral sclerosis (limb paralysis, survival)
Format: in vivo
Text: B6SJL-TgN(SOD1-G93A)1 Gur strain mice were obtained from. The Jackson Laboratory, Bar Harbor, Me. The transgene in these mice carries a high copy number of a mutant allele human SOD1 containing the Gly93 →Ala (G93A) substitution (often referred to as G1H). Mice progressively become paralyzed in one or more limbs, with paralysis due to loss of motor neurons from the spinal cord. The mice are generally described in Gurney M E, Pu H, Chiu A Y, Dal Canto M C, Polchow C Y, Alexander D D, Caliendo J, Hentati A, Kwon Y W, Deng H X, Chen W, Zhai P, Sufit R L, Siddique T: Motor neuron degeneration in mice that express a human Cu,Zn superoxide dismutase mutation. Science 264:1772-1775 (1994), and use of these mice as a model of familial amyotrophic lateral sclerosis is described in Chiu A Y, Zhai P, Dal Canto M C, Peters T M, Kwon Y W, Prattis S M, Gurney M E: Age-dependent penetrance of disease in a transgenic mouse model of familial amyotrophic lateral sclerosis. Mol Cell Neurosci 6:349-362 (1995).
At 105 days following birth, mouse A began manifesting objective symptoms of limb paralysis. A protocol as described in Table 1 was followed.
The thrombopoietin was obtained from Rand D. Systems, Inc. (Minneapolis, Minn.) as carrier-free recombinant thrombopoietin and the thryrotropin was obtained from Ferring Pharmaceuticals; both were administered by intraperitoneal (i.p.) injection. Synthroid®, a form of levothyroxine, was obtained from Flint Pharmaceuticals in 100 μg tablets.
A litter mate of mouse A, referred to as mouse B, was administered a protocol as described in Table 2, with administration commencing prior to the onset of any objective symptoms.
A B6SJL-TgN(SOD1-G93A)1Gur strain mouse as described in Example 1 was obtained, referred to as mouse C. Mouse C was administered a protocol as described in Table 3, with administration commencing prior to the onset of any objective symptoms.

[1] = mouse A, Table 1 protocol, thrombopoietin i.p. days 107, 110, 113

thrombopoietin
objective symptoms observed at day 111 (mouse A, symptomatic from day 105, after thrombopoietin 0.5 cc of 1 μg/cc i.p. on days 107 and 110): marked improvement | objective symptoms observed on day 124 (mouse A, Table 1 protocol): increasing front limb weakness | day of death (mouse A, Table 1 protocol (thrombopoietin, thyrotropin releasing hormone, Synthroid) started after symptom onset): 126 days | objective symptoms observed on day 122 (mouse A, Table 1 protocol, Synthroid in drinking water from day 121): marked improvement in front limbs | objective symptoms observed by day 118 (mouse A, Table 1 protocol, after thrombopoietin plus thyrotropin releasing hormone i.p. on day 117): decreased weakness | objective symptoms observed at day 113 [1]: shaking resumed | objective symptoms observed by day 115 [1]: marked hind limb weakness | objective symptoms observed on day 120 (mouse A, Table 1 protocol, thrombopoietin i.p. through day 119): increased mobility | day of death (mouse B, Table 2 protocol): 132 days | delay of onset of objective signs versus litter mate mouse A (mouse B, Table 2 protocol): 16 days | objective symptoms observed at day 129 (mouse B, Table 2 protocol): posterior limb paralysis | day of first objective signs (slight posterior weakness) (mouse B, Table 2 protocol, thrombopoietin i.p. from day 87, Synthroid in drinking water from day 105, started before symptoms): 121 days | day through which no objective signs of illness were observed (mouse C, Table 3 protocol, thrombopoietin i.p. days 80-88, Synthroid in drinking water from day 92, expected onset 91±14 days): > 110 days
